As a reminder, the Ki is the dissociation constant of the complex between target and ligand, obtained from inhibition or displacement. The term IC50 denotes the concentration needed to halve the response being measured. One may read the inhibition as the drop in the measured response relative to a control, in per cent.

Consider 21 molecules from ChEMBL document CHEMBL3393055, “6,6-Fused heterocyclic ureas as highly potent TRPV1 antagonists” (Bioorg Med Chem Lett, 2015).

Test [1] has as its target T1, Transient receptor potential cation channel subfamily V member 1 (Homo sapiens, UniProt Q8NER1). Briefly: Antagonist activity at human TRPV1 assessed as inhibition of capsaicin-induced effect by FLIPR assay.
In test [2] the target is T1, Transient receptor potential cation channel subfamily V member 1. Nature of the test: Antagonist activity at human TRPV1 assessed as inhibition of NADA-induced effect at 1 uM by FLIPR assay.
For test [3] the target is unchanged. Briefly: Antagonist activity at human TRPV1 assessed as inhibition of pH-induced effect at 1 uM by FLIPR assay.
Test [4] shares this target. Nature of the test: Antagonist activity at human TRPV1 assessed as inhibition of 45 degC heat-induced effect at 1 uM by FLIPR assay.
In test [5] the test system is Mus musculus. Nature of the test: Analgesic activity in formalin-induced mouse pain model at 10 mg/kg, po. In kind it is functional.
The test system of test [6] is Mus musculus. Nature of the test: Analgesic activity in formalin-induced mouse pain model at 0.3 mg/kg, po. The class given is functional.
In test [7] the target is T1, Transient receptor potential cation channel subfamily V member 1. Nature of the test: Antagonist activity at human TRPV1 assessed as inhibition of capsaicin-induced effect at 1 uM by FLIPR assay.

T1 sequence (Q8NER1 whole entry): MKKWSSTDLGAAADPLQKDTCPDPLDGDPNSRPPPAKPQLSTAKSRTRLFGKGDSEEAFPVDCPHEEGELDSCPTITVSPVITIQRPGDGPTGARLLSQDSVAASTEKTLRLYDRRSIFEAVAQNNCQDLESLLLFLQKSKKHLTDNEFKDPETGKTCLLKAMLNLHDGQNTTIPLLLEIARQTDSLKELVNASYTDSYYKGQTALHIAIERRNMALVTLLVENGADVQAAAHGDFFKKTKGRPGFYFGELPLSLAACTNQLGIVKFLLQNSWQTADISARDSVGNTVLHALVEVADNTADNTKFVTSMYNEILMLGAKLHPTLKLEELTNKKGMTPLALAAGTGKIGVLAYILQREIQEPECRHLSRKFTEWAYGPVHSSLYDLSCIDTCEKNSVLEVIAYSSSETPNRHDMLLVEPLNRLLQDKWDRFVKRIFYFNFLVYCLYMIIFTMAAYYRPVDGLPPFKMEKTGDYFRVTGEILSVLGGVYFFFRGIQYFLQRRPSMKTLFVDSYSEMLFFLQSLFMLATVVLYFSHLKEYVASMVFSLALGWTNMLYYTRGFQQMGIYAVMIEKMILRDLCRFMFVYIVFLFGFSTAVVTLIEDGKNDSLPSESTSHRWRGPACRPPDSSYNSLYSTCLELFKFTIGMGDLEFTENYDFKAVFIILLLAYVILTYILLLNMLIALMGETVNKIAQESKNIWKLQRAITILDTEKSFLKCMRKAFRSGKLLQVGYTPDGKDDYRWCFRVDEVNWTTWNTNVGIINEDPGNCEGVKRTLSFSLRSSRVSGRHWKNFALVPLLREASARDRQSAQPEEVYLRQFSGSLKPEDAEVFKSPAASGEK

As for `CC1CCN(c2nc(C(F)(F)F)ccc2CNC(=O)Nc2ccc3cnccc3c2)CC1`, in test [1] (read-out: Ki), the Ki worked out at 7.2 nM.

In the case of `CC1CCN(c2nc(C(F)(F)F)ccc2CNC(=O)Nc2ccc3ccccc3n2)CC1`, in test [1], the inhibition constant (Ki) result is “Not Active”.

Consider `CC1CCN(c2nc(C(F)(F)F)ccc2CNC(=O)Nc2ccc3cnncc3c2)CC1`, for which, in test [1] (read-out: Ki), the Ki was found to be 8.9 nM.

As to `CC1CCN(c2nc(C(F)(F)F)ccc2CNC(=O)Nc2cccc3cnccc23)CC1`, the Ki in test [2] was found to be 0.02 nM; in test [1] (read-out: Ki), 0.2 nM. In addition, the IC50 result in test [3] was “Not Active”; in test [4], 0.55 nM. Also, the MPE is reported as 73% in the test with Mus musculus [5] and 18% in the test on Mus musculus [6]. For the molecule `CC1CCN(c2nc(C(F)(F)F)ccc2CNC(=O)Nc2cccc3ncccc23)CC1`, in test [1] (read-out: Ki), the Ki is 0.7 nM. Consider `CC1CCN(c2nc(C(F)(F)F)ccc2CNC(=O)Nc2cccc3nccnc23)CC1`, for which the Ki in test [1] (read-out: Ki) amounted to 48.1 nM.

On to `CC(C)(C)c1ccc(CNC(=O)Nc2cccc3cnccc23)cc1`, for which, in test [1] (read-out: Ki), the Ki worked out at 13.8 nM.

For the molecule `CC1CCN(c2nc(C(F)(F)F)ccc2CNC(=O)Nc2ccc3cncnc3c2)CC1`, the Ki in test [1] (read-out: Ki) was determined as 7.8 nM. For `CC1CCN(c2nc(C(F)(F)F)ccc2CNC(=O)Nc2nccc3cccnc23)CC1`, the Ki entry in test [1] is “Not Active”. Regarding `CC1CCN(c2nc(C(F)(F)F)ccc2CNC(=O)Nc2cc3ccccc3cn2)CC1`, in test [7], the inhibition was 10%. Turning to `CC1CCN(c2nc(C(F)(F)F)ccc2CNC(=O)Nc2cncc3ccccc23)CC1`, the Ki in test [1] (read-out: Ki) was 1.8 nM. In the case of `CC1CCN(c2nc(C(F)(F)F)ccc2CNC(=O)Nc2ccc3ccncc3c2)CC1`, in test [1] (read-out: Ki), the Ki was 8.4 nM. As to `CC1CCN(c2nc(C(F)(F)F)ccc2CNC(=O)Nc2ccc3ncccc3c2)CC1`, in test [7], the inhibition turned out to be 40%. In the case of `CC1CCN(c2nc(C(F)(F)F)ccc2CNC(=O)Nc2nccc3ccccc23)CC1`, the Ki result in test [1] is “Not Active”. Take `CC1CCN(c2nc(C(F)(F)F)ccc2CNC(=O)Nc2cccc3ccncc23)CC1`: the Ki in test [1] (read-out: Ki) amounted to 0.4 nM. As for `CC1CCN(c2nc(C(F)(F)F)ccc2CNC(=O)Nc2cnc3ccccc3c2)CC1`, the inhibition constant (Ki) in test [1] (read-out: Ki) was found to be 9.5 nM. On to `CC1CCN(c2nc(C(F)(F)F)ccc2CNC(=O)Nc2ccc3cccnc3c2)CC1`, for which, in test [1] (read-out: Ki), the Ki was determined as 7.1 nM. Turning to `CC1CCN(c2nc(C(F)(F)F)ccc2CNC(=O)Nc2cccc3cccnc23)CC1`, the Ki in test [1] (read-out: Ki) came to 91.6 nM. On to `O=C(NCc1ccc(C(F)(F)F)cc1)Nc1cccc2cnccc12`, for which the inhibition constant Ki in test [1] (read-out: Ki) was 18.3 nM. In the case of `CC1CCN(c2nc(C(F)(F)F)ccc2CNC(=O)Nc2ccnc3ccccc23)CC1`, the Ki result in test [1] is recorded as “Agonist”. In the case of `CC1CCN(c2nc(C(F)(F)F)ccc2CNC(=O)Nc2ccc3ncncc3c2)CC1`, the Ki result in test [1] is reported as “Agonist”.
